Laboratory results taken from ChEMBL document CHEMBL4342480, “Design of Dual Inhibitors of Soluble Epoxide Hydrolase and LTA4 Hydrolase” (ACS Med Chem Lett, 2020).

Key:
Type in all cases: functional
Macrophage [1] = assay: Antiinflammatory activity in Escherichia coli O6:K2:H1-induced human M1 macrophage assessed as change in 7-HDHA level at 1 uM preincubated for 10 mins followed by Escherichia coli O6:K2:H1-stimulation and measured after 180 mins by UPLC-MS/MS analysis relative to control
Macrophage [2] = assay: Antiinflammatory activity in Escherichia coli O6:K2:H1-induced human M1 macrophage assessed as change in 5.15-dlHETE level at 10 uM preincubated for 10 mins followed by Escherichia coli O6:K2:H1-stimulation and measured after 180 mins by UPLC-MS/MS analysis relative to control
Macrophage [3] = assay: Antiinflammatory activity in Escherichia coli O6:K2:H1-induced human M1 macrophage assessed as change in 15-HEPE level at 10 uM preincubated for 10 mins followed by Escherichia coli O6:K2:H1-stimulation and measured after 180 mins by UPLC-MS/MS analysis relative to control
Macrophage [4] = assay: Antiinflammatory activity in Escherichia coli O6:K2:H1-induced human M1 macrophage assessed as change in total LTB4 level at 1 uM preincubated for 10 mins followed by Escherichia coli O6:K2:H1-stimulation and measured after 180 mins by UPLC-MS/MS analysis relative to control
Macrophage [5] = assay: Antiinflammatory activity in Escherichia coli O6:K2:H1-induced human M2 macrophage assessed as change in 14-HDHA level at 1 uM preincubated for 10 mins followed by Escherichia coli O6:K2:H1-stimulation and measured after 180 mins by UPLC-MS/MS analysis relative to control
Macrophage [6] = assay: Antiinflammatory activity in Escherichia coli O6:K2:H1-induced human M1 macrophage assessed as change in 5-HEPE level at 10 uM preincubated for 10 mins followed by Escherichia coli O6:K2:H1-stimulation and measured after 180 mins by UPLC-MS/MS analysis relative to control
Macrophage [7] = assay: Antiinflammatory activity in Escherichia coli O6:K2:H1-induced human M2 macrophage assessed as change in 12-HETE level at 10 uM preincubated for 10 mins followed by Escherichia coli O6:K2:H1-stimulation and measured after 180 mins by UPLC-MS/MS analysis relative to control
Macrophage [8] = assay: Antiinflammatory activity in Escherichia coli O6:K2:H1-induced human M2 macrophage assessed as change in 7-HDHA level at 1 uM preincubated for 10 mins followed by Escherichia coli O6:K2:H1-stimulation and measured after 180 mins by UPLC-MS/MS analysis relative to control
Macrophage [9] = assay: Antiinflammatory activity in Escherichia coli O6:K2:H1-induced human M2 macrophage assessed as change in PGE2 level at 10 uM preincubated for 10 mins followed by Escherichia coli O6:K2:H1-stimulation and measured after 180 mins by UPLC-MS/MS analysis relative to control
Macrophage [10] = assay: Antiinflammatory activity in Escherichia coli O6:K2:H1-induced human M2 macrophage assessed as change in 12-HETE level at 1 uM preincubated for 10 mins followed by Escherichia coli O6:K2:H1-stimulation and measured after 180 mins by UPLC-MS/MS analysis relative to control
Macrophage [11] = assay: Antiinflammatory activity in Escherichia coli O6:K2:H1-induced human M1 macrophage assessed as change in 12-HEPE level at 1 uM preincubated for 10 mins followed by Escherichia coli O6:K2:H1-stimulation and measured after 180 mins by UPLC-MS/MS analysis relative to control
Macrophage [12] = assay: Antiinflammatory activity in Escherichia coli O6:K2:H1-induced human M2 macrophage assessed as change in 5.15-dlHETE level at 1 uM preincubated for 10 mins followed by Escherichia coli O6:K2:H1-stimulation and measured after 180 mins by UPLC-MS/MS analysis relative to control
Macrophage [13] = assay: Antiinflammatory activity in Escherichia coli O6:K2:H1-induced human M2 macrophage assessed as change in 12-HEPE level at 10 uM preincubated for 10 mins followed by Escherichia coli O6:K2:H1-stimulation and measured after 180 mins by UPLC-MS/MS analysis relative to control
Macrophage [14] = assay: Antiinflammatory activity in Escherichia coli O6:K2:H1-induced human M2 macrophage assessed as change in LTB4 level at 1 uM preincubated for 10 mins followed by Escherichia coli O6:K2:H1-stimulation and measured after 180 mins by UPLC-MS/MS analysis relative to control
Macrophage [15] = assay: Antiinflammatory activity in Escherichia coli O6:K2:H1-induced human M1 macrophage assessed as change in 14-HDHA level at 10 uM preincubated for 10 mins followed by Escherichia coli O6:K2:H1-stimulation and measured after 180 mins by UPLC-MS/MS analysis relative to control
Macrophage [16] = assay: Antiinflammatory activity in Escherichia coli O6:K2:H1-induced human M1 macrophage assessed as change in 15-HETE level at 10 uM preincubated for 10 mins followed by Escherichia coli O6:K2:H1-stimulation and measured after 180 mins by UPLC-MS/MS analysis relative to control
Macrophage [17] = assay: Antiinflammatory activity in Escherichia coli O6:K2:H1-induced human M2 macrophage assessed as change in 17-HDHA level at 1 uM preincubated for 10 mins followed by Escherichia coli O6:K2:H1-stimulation and measured after 180 mins by UPLC-MS/MS analysis relative to control
Macrophage [18] = assay: Antiinflammatory activity in Escherichia coli O6:K2:H1-induced human M1 macrophage assessed as change in 18-HEPE level at 10 uM preincubated for 10 mins followed by Escherichia coli O6:K2:H1-stimulation and measured after 180 mins by UPLC-MS/MS analysis relative to control
Macrophage [19] = assay: Antiinflammatory activity in Escherichia coli O6:K2:H1-induced human M2 macrophage assessed as change in total LTB4 level at 10 uM preincubated for 10 mins followed by Escherichia coli O6:K2:H1-stimulation and measured after 180 mins by UPLC-MS/MS analysis relative to control
Macrophage [20] = assay: Antiinflammatory activity in Escherichia coli O6:K2:H1-induced human M1 macrophage assessed as change in 5-HETE level at 10 uM preincubated for 10 mins followed by Escherichia coli O6:K2:H1-stimulation and measured after 180 mins by UPLC-MS/MS analysis relative to control
Macrophage [21] = assay: Antiinflammatory activity in Escherichia coli O6:K2:H1-induced human M2 macrophage assessed as change in PGF2alpha level at 10 uM preincubated for 10 mins followed by Escherichia coli O6:K2:H1-stimulation and measured after 180 mins by UPLC-MS/MS analysis relative to control
Macrophage [22] = assay: Antiinflammatory activity in Escherichia coli O6:K2:H1-induced human M2 macrophage assessed as change in 15-HEPE level at 10 uM preincubated for 10 mins followed by Escherichia coli O6:K2:H1-stimulation and measured after 180 mins by UPLC-MS/MS analysis relative to control
Macrophage [23] = assay: Antiinflammatory activity in Escherichia coli O6:K2:H1-induced human M2 macrophage assessed as change in PGD2 level at 10 uM preincubated for 10 mins followed by Escherichia coli O6:K2:H1-stimulation and measured after 180 mins by UPLC-MS/MS analysis relative to control
Macrophage [24] = assay: Antiinflammatory activity in Escherichia coli O6:K2:H1-induced human M1 macrophage assessed as change in LTB4 level at 1 uM preincubated for 10 mins followed by Escherichia coli O6:K2:H1-stimulation and measured after 180 mins by UPLC-MS/MS analysis relative to control

Question: Which Activity (Macrophage [1]) does the source give for `O=C(Cc1ccc(Oc2nc3ccccc3s2)cc1F)NCCc1ccc(F)cc1` here?
Answer: Its Activity is 113%.

Question: What about the Activity (Macrophage [2]) of the same compound?
Answer: The Activity was 97%.

Question: What about the Activity (Macrophage [3]) of the same compound?
Answer: Its Activity is 191%.

Question: What about the Activity (Macrophage [4]) of the same compound?
Answer: The Activity was 132%.

Question: What about the Activity (Macrophage [5]) of the same compound?
Answer: The Activity was 103%.

Question: What about the Activity (Macrophage [6]) of the same compound?
Answer: The Activity was 65%.

Question: And the Activity (Macrophage [7])?
Answer: The Activity was 114%.

Question: And the Activity (Macrophage [8])?
Answer: The Activity was 94%.

Question: What about the Activity (Macrophage [9]) of the same compound?
Answer: The Activity was 51%.

Question: And the Activity (Macrophage [10])?
Answer: Its Activity is 87%.

Question: And the Activity (Macrophage [11])?
Answer: Its Activity is 95%.

Question: And the Activity (Macrophage [12])?
Answer: The Activity was 93%.

Question: What about the Activity (Macrophage [13]) of the same compound?
Answer: Its Activity is 105%.

Question: What about the Activity (Macrophage [14]) of the same compound?
Answer: Its Activity is 72%.

Question: What about the Activity (Macrophage [15]) of the same compound?
Answer: The Activity was 114%.

Question: What about the Activity (Macrophage [16]) of the same compound?
Answer: The Activity was 151%.

Question: And the Activity (Macrophage [17])?
Answer: Its Activity is 106%.

Question: And the Activity (Macrophage [18])?
Answer: The Activity was 73%.

Question: And the Activity (Macrophage [19])?
Answer: Its Activity is 72%.

Question: What about the Activity (Macrophage [20]) of the same compound?
Answer: The Activity was 42%.

Question: And the Activity (Macrophage [21])?
Answer: The Activity was 45%.

Question: What about the Activity (Macrophage [22]) of the same compound?
Answer: The Activity was 120%.

Question: And the Activity (Macrophage [23])?
Answer: Its Activity is 64%.

Question: What about the Activity (Macrophage [24]) of the same compound?
Answer: Its Activity is 181%.
